Data reported in PMC10337138 (Acta Neuropathologica Communications, 2023).

How the values were obtained:
Settings in all cases: 1 mM ATP; inhibitor
[1] = target: MINK1 (Homo sapiens, UniProt Q8N4C8)
Experimental: (§1) Kinase selectivity panel Kinome profiling was conducted by AssayQuant Technologies (Marlboro, MA) using Sox chromophore technology and Sox-based peptide substrates developed for human kinases in a 384-well format. Compounds were tested at 1 µM in the presence of 1 mM ATP.

[2] = target: IRAK4 (Homo sapiens, UniProt Q9NWZ3)
Experimental: as §1

[3] = target: DAPK1 (Homo sapiens, UniProt P53355)
Experimental: as §1

[4] = target: TSSK3 (Homo sapiens, UniProt Q96PN8)
Experimental: as §1

[5] = target: T1, PRKCB1/PKCB1 (Homo sapiens, UniProt P05771)
T1 construct: gene PRKCB
Experimental: as §1

[6] = target: MAP4K4/HGK (Homo sapiens, UniProt O95819)
Experimental: as §1

[7] = target: MAP3K7 (Homo sapiens, UniProt O43318)
Experimental: as §1

[8] = target: PAK1 (Homo sapiens, UniProt Q13153)
Experimental: as §1

[9] = target: DDR1 (Homo sapiens, UniProt Q08345)
Experimental: as §1

[10] = target: STK24/MST3 (Homo sapiens, UniProt Q9Y6E0)
Experimental: as §1

[11] = target: TAOK1 (Homo sapiens, UniProt Q7L7X3)
Experimental: as §1

[12] = target: ERN1 (Homo sapiens, UniProt O75460)
Experimental: as §1

[13] = target: MAP4K2/GCK (Homo sapiens, UniProt Q12851)
Experimental: as §1

[14] = target: MAPKAPK3/MK3 (Homo sapiens, UniProt Q16644)
Experimental: as §1

[15] = target: PASK (Homo sapiens, UniProt Q96RG2)
Experimental: as §1

[16] = target: T2, FYNB (Homo sapiens, UniProt P06241)
T2 construct: gene FYN
Experimental: as §1

[17] = target: CHEK1/CHK1 (Homo sapiens, UniProt O14757)
Experimental: as §1

[18] = target: NEK7 (Homo sapiens, UniProt Q8TDX7)
Experimental: as §1

[19] = target: EPHB1 (Homo sapiens, UniProt P54762)
Experimental: as §1

[20] = target: CAMK2G (Homo sapiens, UniProt Q13555)
Experimental: as §1

[21] = target: T3, CHAK1 (Homo sapiens, UniProt Q96QT4)
T3 construct: gene TRPM7
Experimental: as §1

[22] = target: CDC42BPB/MRCKB (Homo sapiens, UniProt Q9Y5S2)
Experimental: as §1

[23] = target: T4, DMPK1 (Homo sapiens, UniProt Q09013)
T4 construct: gene DMPK
Experimental: as §1

[24] = target: EGFR (Homo sapiens, UniProt P00533)
Experimental: as §1

[25] = target: AURKC/AURC (Homo sapiens, UniProt Q9UQB9)
Experimental: as §1

[26] = target: MARK4 (Homo sapiens, UniProt Q96L34)
Experimental: as §1

[27] = target: TYRO3 (Homo sapiens, UniProt Q06418)
Experimental: as §1

[28] = target: CDK6/D3 (Homo sapiens, UniProt Q00534)
Experimental: as §1

[29] = target: CAMK2B (Homo sapiens, UniProt Q13554)
Experimental: as §1

[30] = target: AURKB/AURB (Homo sapiens, UniProt Q96GD4)
Experimental: as §1

[31] = target: ROCK2 (Homo sapiens, UniProt O75116)
Experimental: as §1

[32] = target: EEF2K (Homo sapiens, UniProt O00418)
Experimental: as §1

[33] = target: PKN2 (Homo sapiens, UniProt Q16513)
Experimental: as §1

[34] = target: TNK1 (Homo sapiens, UniProt Q13470)
Experimental: as §1

[35] = target: MAP4K1/HPK1 (Homo sapiens, UniProt Q92918)
Experimental: as §1

[36] = target: EPHA1 (Homo sapiens, UniProt P21709)
Experimental: as §1

[37] = target: INSRR (Homo sapiens, UniProt P14616)
Experimental: as §1

[38] = target: TEC (Homo sapiens, UniProt P42680)
Experimental: as §1

[39] = target: TBK1 (Homo sapiens, UniProt Q9UHD2)
Experimental: as §1

Chain of EPHB1 (P54762 whole entry): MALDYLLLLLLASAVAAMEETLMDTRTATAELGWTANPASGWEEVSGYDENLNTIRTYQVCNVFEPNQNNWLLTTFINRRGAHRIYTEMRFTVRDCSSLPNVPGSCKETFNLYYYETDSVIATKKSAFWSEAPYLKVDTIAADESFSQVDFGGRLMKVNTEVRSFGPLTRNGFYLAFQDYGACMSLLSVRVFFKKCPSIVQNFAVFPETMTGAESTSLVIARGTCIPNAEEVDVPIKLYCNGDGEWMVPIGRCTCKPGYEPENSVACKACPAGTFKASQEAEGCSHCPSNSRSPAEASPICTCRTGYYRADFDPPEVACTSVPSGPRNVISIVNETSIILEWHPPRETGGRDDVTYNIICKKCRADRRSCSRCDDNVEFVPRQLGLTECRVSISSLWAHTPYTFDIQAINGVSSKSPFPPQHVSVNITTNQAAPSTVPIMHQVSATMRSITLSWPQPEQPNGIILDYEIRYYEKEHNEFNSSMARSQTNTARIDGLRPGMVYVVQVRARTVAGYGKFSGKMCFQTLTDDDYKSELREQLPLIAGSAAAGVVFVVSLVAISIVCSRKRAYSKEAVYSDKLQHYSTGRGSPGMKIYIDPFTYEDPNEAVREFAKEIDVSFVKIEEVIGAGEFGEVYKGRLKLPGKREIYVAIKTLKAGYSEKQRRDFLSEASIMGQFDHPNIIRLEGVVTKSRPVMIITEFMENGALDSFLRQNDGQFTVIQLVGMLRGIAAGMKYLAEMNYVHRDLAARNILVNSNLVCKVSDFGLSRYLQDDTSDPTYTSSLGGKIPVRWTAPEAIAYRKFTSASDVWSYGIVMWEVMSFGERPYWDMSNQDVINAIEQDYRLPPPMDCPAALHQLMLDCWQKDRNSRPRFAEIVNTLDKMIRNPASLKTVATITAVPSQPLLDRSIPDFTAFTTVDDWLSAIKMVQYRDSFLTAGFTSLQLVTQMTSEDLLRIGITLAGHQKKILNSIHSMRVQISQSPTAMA
Chain of CAMK2B (Q13554 whole entry): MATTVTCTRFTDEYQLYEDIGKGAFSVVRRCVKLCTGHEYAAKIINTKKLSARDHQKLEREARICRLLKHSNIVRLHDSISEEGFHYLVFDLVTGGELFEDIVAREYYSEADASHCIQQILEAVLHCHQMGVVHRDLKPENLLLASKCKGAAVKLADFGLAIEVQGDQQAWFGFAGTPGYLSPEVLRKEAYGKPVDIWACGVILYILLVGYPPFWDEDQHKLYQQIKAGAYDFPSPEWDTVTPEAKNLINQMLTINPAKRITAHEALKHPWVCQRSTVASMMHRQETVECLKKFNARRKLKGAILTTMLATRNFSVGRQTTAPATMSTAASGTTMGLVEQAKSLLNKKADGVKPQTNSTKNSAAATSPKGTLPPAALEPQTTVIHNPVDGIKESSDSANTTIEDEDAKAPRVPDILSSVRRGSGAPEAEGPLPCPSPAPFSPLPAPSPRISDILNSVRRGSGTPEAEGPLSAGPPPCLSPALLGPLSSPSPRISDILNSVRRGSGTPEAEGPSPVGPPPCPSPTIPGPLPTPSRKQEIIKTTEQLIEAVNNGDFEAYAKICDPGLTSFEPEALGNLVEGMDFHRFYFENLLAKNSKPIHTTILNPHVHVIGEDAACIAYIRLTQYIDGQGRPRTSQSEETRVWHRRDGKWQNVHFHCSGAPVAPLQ
Chain of MINK1 (Q8N4C8 whole entry): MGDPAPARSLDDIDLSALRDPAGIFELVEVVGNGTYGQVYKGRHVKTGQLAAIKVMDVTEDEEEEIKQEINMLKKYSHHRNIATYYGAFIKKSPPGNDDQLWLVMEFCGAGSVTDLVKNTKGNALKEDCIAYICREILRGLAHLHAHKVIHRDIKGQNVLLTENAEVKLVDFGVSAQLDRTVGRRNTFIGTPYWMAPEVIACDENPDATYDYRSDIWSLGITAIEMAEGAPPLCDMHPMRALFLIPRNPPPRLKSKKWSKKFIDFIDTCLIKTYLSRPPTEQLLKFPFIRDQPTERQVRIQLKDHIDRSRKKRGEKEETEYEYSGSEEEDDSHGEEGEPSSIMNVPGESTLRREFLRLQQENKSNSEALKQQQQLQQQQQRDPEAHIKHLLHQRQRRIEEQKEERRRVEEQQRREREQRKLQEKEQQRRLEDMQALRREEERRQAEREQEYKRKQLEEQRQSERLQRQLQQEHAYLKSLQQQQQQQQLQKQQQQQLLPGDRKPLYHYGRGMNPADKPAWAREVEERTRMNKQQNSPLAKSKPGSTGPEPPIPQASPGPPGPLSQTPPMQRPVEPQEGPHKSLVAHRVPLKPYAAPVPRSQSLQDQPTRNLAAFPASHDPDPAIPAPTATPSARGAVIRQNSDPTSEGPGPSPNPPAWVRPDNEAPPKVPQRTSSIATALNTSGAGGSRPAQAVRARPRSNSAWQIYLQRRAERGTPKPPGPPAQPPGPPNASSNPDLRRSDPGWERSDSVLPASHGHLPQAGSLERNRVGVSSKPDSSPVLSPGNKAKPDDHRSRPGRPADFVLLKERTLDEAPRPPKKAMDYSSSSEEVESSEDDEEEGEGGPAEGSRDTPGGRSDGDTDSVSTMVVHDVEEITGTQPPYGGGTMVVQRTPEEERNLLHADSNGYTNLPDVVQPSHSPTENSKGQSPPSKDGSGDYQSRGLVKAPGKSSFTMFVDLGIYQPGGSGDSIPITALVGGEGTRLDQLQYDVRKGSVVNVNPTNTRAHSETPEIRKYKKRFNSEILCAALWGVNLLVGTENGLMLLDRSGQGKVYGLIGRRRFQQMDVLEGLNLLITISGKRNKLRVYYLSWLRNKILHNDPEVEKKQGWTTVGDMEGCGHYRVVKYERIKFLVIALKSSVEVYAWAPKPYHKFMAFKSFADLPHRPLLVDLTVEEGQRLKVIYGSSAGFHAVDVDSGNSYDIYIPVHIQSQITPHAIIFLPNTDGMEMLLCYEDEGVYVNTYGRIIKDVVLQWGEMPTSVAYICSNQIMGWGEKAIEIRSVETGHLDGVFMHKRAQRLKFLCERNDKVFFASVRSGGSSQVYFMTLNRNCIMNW
Chain of ERN1 (O75460 whole entry): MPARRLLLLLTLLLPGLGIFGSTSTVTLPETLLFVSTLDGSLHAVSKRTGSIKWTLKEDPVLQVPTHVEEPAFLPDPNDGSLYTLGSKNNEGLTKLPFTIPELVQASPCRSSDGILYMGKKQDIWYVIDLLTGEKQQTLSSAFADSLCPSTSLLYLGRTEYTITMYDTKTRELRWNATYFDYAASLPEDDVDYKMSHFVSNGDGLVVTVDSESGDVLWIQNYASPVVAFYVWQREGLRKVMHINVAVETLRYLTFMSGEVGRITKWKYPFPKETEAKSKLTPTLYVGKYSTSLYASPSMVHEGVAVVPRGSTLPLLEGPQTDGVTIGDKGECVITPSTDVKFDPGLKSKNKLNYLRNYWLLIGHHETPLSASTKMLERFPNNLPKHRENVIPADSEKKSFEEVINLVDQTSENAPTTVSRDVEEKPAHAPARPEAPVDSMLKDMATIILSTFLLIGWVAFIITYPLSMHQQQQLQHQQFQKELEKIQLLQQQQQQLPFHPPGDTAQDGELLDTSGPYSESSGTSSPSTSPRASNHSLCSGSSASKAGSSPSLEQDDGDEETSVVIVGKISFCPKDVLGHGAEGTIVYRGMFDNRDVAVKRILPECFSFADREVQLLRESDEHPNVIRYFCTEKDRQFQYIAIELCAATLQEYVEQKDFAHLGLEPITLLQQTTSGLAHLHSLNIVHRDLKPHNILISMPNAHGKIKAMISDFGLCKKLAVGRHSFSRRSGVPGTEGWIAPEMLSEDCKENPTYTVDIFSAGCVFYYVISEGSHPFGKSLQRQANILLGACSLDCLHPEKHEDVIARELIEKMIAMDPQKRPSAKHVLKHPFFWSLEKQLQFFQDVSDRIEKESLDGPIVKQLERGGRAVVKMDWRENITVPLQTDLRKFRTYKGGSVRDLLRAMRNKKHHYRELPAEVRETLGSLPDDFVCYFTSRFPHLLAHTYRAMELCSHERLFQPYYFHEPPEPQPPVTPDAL
Chain of TSSK3 (Q96PN8 whole entry): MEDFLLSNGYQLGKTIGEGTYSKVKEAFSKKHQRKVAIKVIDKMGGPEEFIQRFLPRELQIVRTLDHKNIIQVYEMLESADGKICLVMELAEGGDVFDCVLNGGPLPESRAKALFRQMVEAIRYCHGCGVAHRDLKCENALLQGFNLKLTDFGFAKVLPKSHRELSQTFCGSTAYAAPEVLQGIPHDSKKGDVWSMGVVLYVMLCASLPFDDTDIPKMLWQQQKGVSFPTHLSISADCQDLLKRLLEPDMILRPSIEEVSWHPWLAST
Chain of AURKC/AURC (Q9UQB9 whole entry): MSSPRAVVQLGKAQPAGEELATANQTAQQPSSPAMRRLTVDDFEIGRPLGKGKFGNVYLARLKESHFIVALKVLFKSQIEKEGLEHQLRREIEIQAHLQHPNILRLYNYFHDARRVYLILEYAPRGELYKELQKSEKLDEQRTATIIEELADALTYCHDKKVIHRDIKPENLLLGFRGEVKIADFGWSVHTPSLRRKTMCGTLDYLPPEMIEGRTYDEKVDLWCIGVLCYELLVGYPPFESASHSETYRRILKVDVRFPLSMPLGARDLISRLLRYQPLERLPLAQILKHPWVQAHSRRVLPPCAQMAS
Chain of AURKB/AURB (Q96GD4 whole entry): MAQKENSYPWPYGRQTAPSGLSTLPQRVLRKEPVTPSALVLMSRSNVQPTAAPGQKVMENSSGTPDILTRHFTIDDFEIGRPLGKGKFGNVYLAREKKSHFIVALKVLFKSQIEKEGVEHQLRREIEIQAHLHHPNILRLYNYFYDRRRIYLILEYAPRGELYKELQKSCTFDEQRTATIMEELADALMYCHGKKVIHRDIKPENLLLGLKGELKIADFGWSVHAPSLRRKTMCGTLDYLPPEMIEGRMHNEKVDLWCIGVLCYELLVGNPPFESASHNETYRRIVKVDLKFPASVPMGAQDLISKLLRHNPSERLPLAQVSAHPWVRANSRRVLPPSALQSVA

C=CC(=O)N1CCC[C@@H](n2nc(-c3ccc(Oc4ccccc4)cc3)c3c(N)ncnc32)C1 [Ibrutinib]
1 µM GBD00276 (ibrutinib), % inhibition [1]: 7.641% | 1 µM GBD00276 (ibrutinib), % inhibition [2]: 1.168% | 1 µM GBD00276 (ibrutinib), % inhibition [3]: 0.3006% | 1 µM GBD00276 (ibrutinib), % inhibition [4]: -3.43% | 1 µM GBD00276 (ibrutinib), % inhibition [5]: -10.64% | 1 µM GBD00276 (ibrutinib), % inhibition [6]: -8.478% | 1 µM GBD00276 (ibrutinib), % inhibition [7]: -2.955% | 1 µM GBD00276 (ibrutinib), % inhibition [8]: 16.51% | 1 µM GBD00276 (ibrutinib), % inhibition [9]: 24.25% | 1 µM GBD00276 (ibrutinib), % inhibition [10]: -20.41% | 1 µM GBD00276 (ibrutinib), % inhibition [11]: 0.7765% | 1 µM GBD00276 (ibrutinib), % inhibition [12]: 1.571% | 1 µM GBD00276 (ibrutinib), % inhibition [13]: 1.626% | 1 µM GBD00276 (ibrutinib), % inhibition [14]: 9.483% | 1 µM GBD00276 (ibrutinib), % inhibition [15]: 16.95% | 1 µM GBD00276 (ibrutinib), % inhibition [16]: 30.61% | 1 µM GBD00276 (ibrutinib), % inhibition [17]: -3.114% | 1 µM GBD00276 (ibrutinib), % inhibition [18]: -0.8851% | 1 µM GBD00276 (ibrutinib), % inhibition [19]: -0.8801% | 1 µM GBD00276 (ibrutinib), % inhibition [20]: 8.429% | 1 µM GBD00276 (ibrutinib), % inhibition [21]: -7.703% | 1 µM GBD00276 (ibrutinib), % inhibition [22]: -15.12% | 1 µM GBD00276 (ibrutinib), % inhibition [23]: -2.197% | 1 µM GBD00276 (ibrutinib), % inhibition [24]: 96.63% | 1 µM GBD00276 (ibrutinib), % inhibition [25]: 2.291% | 1 µM GBD00276 (ibrutinib), % inhibition [26]: -1.923% | 1 µM GBD00276 (ibrutinib), % inhibition [27]: 3.401% | 1 µM GBD00276 (ibrutinib), % inhibition [28]: 7.258% | 1 µM GBD00276 (ibrutinib), % inhibition [29]: 4.39% | 1 µM GBD00276 (ibrutinib), % inhibition [30]: 7.598% | 1 µM GBD00276 (ibrutinib), % inhibition [31]: 8.461% | 1 µM GBD00276 (ibrutinib), % inhibition [32]: 6.273% | 1 µM GBD00276 (ibrutinib), % inhibition [33]: 2.374% | 1 µM GBD00276 (ibrutinib), % inhibition [34]: -7.554% | 1 µM GBD00276 (ibrutinib), % inhibition [35]: 8.34% | 1 µM GBD00276 (ibrutinib), % inhibition [36]: 10.7% | 1 µM GBD00276 (ibrutinib), % inhibition [37]: 19.45% | 1 µM GBD00276 (ibrutinib), % inhibition [38]: 98.943% | 1 µM GBD00276 (ibrutinib), % inhibition [39]: -3.072%
